Measured values taken from patent publication US9878986B2, “Compounds for selective histone deacetylase inhibitors, and pharmaceutical composition comprising the same” (CHONG KUN DANG PHARMACEUTICAL CORP., priority 2013, dated 2018).

Key:
HDAC 6 = molecular target: T1, HDAC 6 (Homo sapiens, UniProt Q9UBN7); test: Test of HDAC activities, HDAC6 (fluorimetric); type: biochemical; parameters: purchased Calbiochem 382180; settings: samples at 0.1, 1, 10, 100, 1000 nM; 37° C. 60 minutes; fluorescence Ex 390, Em 460; read-out: HDAC inhibitory activities, HDAC6
T1 sequence (Q9UBN7 1-1215): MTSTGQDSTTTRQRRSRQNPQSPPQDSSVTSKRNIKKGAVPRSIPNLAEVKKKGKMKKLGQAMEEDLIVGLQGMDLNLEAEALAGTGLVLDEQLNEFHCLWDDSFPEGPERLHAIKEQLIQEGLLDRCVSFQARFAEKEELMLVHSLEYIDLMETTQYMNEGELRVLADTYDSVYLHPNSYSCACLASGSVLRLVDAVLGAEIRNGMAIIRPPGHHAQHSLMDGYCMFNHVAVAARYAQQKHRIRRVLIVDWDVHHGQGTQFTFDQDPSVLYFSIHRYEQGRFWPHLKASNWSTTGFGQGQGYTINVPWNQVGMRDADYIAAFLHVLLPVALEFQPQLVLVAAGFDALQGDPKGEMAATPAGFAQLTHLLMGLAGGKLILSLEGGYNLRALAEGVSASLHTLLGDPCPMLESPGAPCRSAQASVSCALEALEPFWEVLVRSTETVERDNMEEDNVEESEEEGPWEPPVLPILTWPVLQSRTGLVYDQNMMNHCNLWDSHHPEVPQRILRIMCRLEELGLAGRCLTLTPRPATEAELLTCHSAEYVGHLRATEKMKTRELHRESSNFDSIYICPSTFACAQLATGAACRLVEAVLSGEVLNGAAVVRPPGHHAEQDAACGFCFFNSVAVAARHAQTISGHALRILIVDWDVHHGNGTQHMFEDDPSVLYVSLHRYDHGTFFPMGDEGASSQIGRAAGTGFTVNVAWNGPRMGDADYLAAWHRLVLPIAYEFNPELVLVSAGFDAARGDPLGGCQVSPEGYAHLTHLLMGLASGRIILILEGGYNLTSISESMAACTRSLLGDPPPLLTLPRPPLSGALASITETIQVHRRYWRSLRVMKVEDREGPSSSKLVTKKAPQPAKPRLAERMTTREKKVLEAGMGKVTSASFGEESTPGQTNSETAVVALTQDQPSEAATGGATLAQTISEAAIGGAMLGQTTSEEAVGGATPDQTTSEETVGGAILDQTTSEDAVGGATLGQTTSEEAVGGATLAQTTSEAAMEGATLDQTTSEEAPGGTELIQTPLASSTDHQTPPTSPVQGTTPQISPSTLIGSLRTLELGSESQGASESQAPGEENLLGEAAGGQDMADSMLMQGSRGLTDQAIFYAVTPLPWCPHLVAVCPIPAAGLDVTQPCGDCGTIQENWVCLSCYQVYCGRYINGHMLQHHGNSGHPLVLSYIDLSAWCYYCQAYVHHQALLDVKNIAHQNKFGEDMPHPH
Outline: (§1)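 HDAC1 tested at 100, 1000 and 10000 nM; recombinant human HDAC6 at 0.1, 1, 10, 100 and 1000 nM. Reaction 60 min at 37° C, then developer for 30 min at 37° C; fluorescence read at Ex 390/Em 460.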

HDAC1 = HDAC1 (Homo sapiens, UniProt Q13547); test: Test of HDAC activities, HDAC1 Fluorimetric Drug Discovery Assay Kit; type: biochemical; parameters: purchased Enzolifesciences BML-AK511; settings: samples at 100, 1000, 10000 nM; 37° C. 60 minutes; fluorescence Ex 390, Em 460; read-out: HDAC inhibitory activities, HDAC1
Outline: as §1

Sequence of HDAC1 (Q13547 whole entry): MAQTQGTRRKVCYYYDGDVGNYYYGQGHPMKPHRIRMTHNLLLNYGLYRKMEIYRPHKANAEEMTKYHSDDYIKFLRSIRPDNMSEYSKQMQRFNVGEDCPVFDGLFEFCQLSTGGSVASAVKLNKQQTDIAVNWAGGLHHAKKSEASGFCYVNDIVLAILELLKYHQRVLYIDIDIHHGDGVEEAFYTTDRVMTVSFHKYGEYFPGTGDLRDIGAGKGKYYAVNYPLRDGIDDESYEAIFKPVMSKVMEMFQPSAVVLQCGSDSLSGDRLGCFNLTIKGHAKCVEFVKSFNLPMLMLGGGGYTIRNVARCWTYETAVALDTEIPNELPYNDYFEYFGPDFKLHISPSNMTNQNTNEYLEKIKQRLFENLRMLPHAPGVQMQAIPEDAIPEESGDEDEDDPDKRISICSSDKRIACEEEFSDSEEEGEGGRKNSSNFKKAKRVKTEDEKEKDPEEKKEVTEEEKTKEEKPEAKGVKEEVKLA

Row | IC50 (HDAC 6) [nM] | IC50 (HDAC1) [nM] | SMILES
1 | 3 | 1000 | O=C(NO)c1ccc(CN(C(=O)N2CCOCC2)c2cccc(CF)c2)cc1 [Compound 500, N-(3-(fluoromethyl)phenyl)-N-(4-(hydroxycarbamoyl)benzyl)morpholine-4-carboxamide]
2 | 4.6 | 765 | O=C(NO)c1ccc(CN(C(=O)N2CCN(CC3(O)CCOCC3)CC2)c2cccc(C(F)(F)F)c2)cc1 [Compound 651, 4-((4-hydroxy-tetrahydro-2H-pyran-4-yl)methyl)-N-(4-(hydroxycarbamoyl)benzyl)-N-(3-(trifluoromethyl)phenyl)piperazine-1-carboxamide]
3 | 9 | 447 | O=C(NO)c1ccc(CN(C(=O)N2CCN(CCN3CCOCC3)CC2)c2ccc(C(F)(F)F)cc2)cc1 [Compound 543, N-(4-(hydroxycarbamoyl)benzyl)-4-(2-morpholinoethyl)-N-(4-(trifluoromethyl)phenyl)piperazine-1-carboxamide]
4 | 5 | 1110 | CN1CCN(C(=O)N(Cc2ccc(C(=O)NO)cc2)c2ccc(Cl)c(C(F)(F)F)c2)CC1 [Compound 393, N-(4-chloro-3-(trifluoromethyl)phenyl)-N-(4-(hydroxycarbamoyl)benzyl)-4-methylpiperazine-1-carboxamide]
5 | 21 | 667 | O=C(NO)c1ccc(CN(C(=O)N2CCCOCC2)c2ccc(C(F)(F)F)cc2)cc1 [Compound 580, N-(4-(hydroxycarbamoyl)benzyl)-N-(4-(trifluoromethyl)phenyl)-1,4-oxazepane-4-carboxamide]
6 | 14 | 7350 | CC1CCN(C(=O)N(Cc2ccc(C(=O)NO)cc2)c2cccc(C(F)(F)F)c2)CC1 [Compound 459, N-(4-(hydroxycarbamoyl)benzyl)-4-methyl-N-(3-(trifluoromethyl)phenyl)piperidine-1-carboxamide]
7 | 6.4 | 727 | O=C(NO)c1ccc(CN(C(=O)N2CCN(CC3(F)CCOCC3)CC2)c2cccc(C(F)(F)F)c2)cc1 [Compound 716, 4-((4-fluorotetrahydro-2H-pyran-4-yl)methyl)-N-(4-(hydroxycarbamoyl)benzyl)-N-(3-(trifluoromethyl)phenyl)piperazine-1-carboxamide]
8 | 11 | 6430 | O=C(NO)c1ccc(CN(C(=O)N2CCOCC2)c2cccc(C(F)(F)F)n2)cc1 [Compound 778, N-(4-(hydroxycarbamoyl)benzyl)-N-(6-(trifluoromethyl)pyridin-2-yl)morpholine-4-carboxamide]
9 | 2 | 632 | Cc1ccc(N(Cc2ccc(C(=O)NO)cc2)C(=O)N2CCOCC2)c(F)c1 [Compound 439, N-(2-fluoro-4-methylphenyl)-N-(4-(hydroxycarbamoyl)benzyl)morpholine-4-carboxamide]

Further lines, the molecule ahead of its results:

Row | SMILES | IC50 (HDAC 6) [nM] | IC50 (HDAC1) [nM]
10 | C[C@@H]1CN(C(=O)N(Cc2ccc(C(=O)NO)cc2)c2cccc(C(F)(F)F)c2)C[C@H](C)N1Cc1ccccc1 [Compound 802, (3S,5R)-4-benzyl-N-(4-(hydroxycarbamoyl)benzyl)-3,5-dimethyl-N-(3-(trifluoromethyl)phenyl)piperazine-1-carboxamide] | 9.4 | 1600
11 | O=C(NO)c1ccc(CN(C(=O)N2CCN(CCO)CC2)c2cccc(-c3ccc4c(c3)OCO4)c2)cc1 [Compound 467, N-(3-(benzo[d][1,3]dioxol-5-yl)phenyl)-N-(4-(hydroxycarbamoyl)benzyl)-4-(2-hydroxyethyl)piperazine-1-carboxamide] | 1 | 240
12 | O=C(NO)c1ccc(CN(C(=O)N2CCOCC2)c2cccc(-c3cc(F)cc(F)c3)c2)cc1 [Compound 395, N-(3′,5′-difluorobiphenyl-3-yl)-N-(4-(hydroxycarbamoyl)benzyl)morpholine-4-carboxamide] | 5 | 489
13 | COc1ccccc1N1CCN(C(=O)N(Cc2ccc(C(=O)NO)cc2)c2ccc(F)c(Cl)c2)CC1 [Compound 481, N-(3-chloro-4-fluorophenyl)-N-(4-(hydroxycarbamoyl)benzyl)-4-(2-methoxyphenyl)piperazine-1-carboxamide] | 15 | 2080
14 | O=C(NO)c1ccc(CN(C(=O)N2CCOCC2)c2cccc(-c3cncnc3)c2)cc1 [Compound 397, N-(4-(hydroxycarbamoyl)benzyl)-N-(3-(pyrimidin-5-yl)phenyl)morpholine-4-carboxamide] | 14 | 1000
15 | CC1CN(C(=O)N(Cc2ccc(C(=O)NO)cc2)c2ccccc2OC(F)(F)F)CC(C)O1 (stereo not drawn) [Compound 801, N-(4-(hydroxycarbamoyl)benzyl)-2,6-dimethyl-N-(2-(trifluoromethoxy)phenyl)morpholine-4-carboxamide] | 59.7 | 14900
16 | CN1CCN(C(=O)N(Cc2ccc(C(=O)NO)cc2)c2ccc(F)cc2F)CC1 [Compound 416, N-(2,4-difluorophenyl)-N-(4-(hydroxycarbamoyl)benzyl)-4-methylpiperazine-1-carboxamide] | 2 | 930
17 | Cn1ncc2cc(-c3cccc(N(Cc4ccc(C(=O)NO)cc4)C(=O)N4CCCCC4)c3)ccc21 [Compound 260, N-(4-(hydroxycarbamoyl)benzyl)-N-(3-(1-methyl-1H-indazol-5-yl)phenyl)piperidine-1-carboxamide] | 7 | 551
18 | CC1CN(C(=O)N(Cc2ccc(C(=O)NO)cc2)c2cccc(C(F)(F)F)c2)CC(C)O1 (stereo not drawn) [Compound 386, N-(4-(hydroxycarbamoyl)benzyl)-2,6-dimethyl-N-(3-(trifluoromethyl)phenyl)morpholine-4-carboxamide] | 6 | 4040
19 | CS(=O)(=O)N1CCC(c2cccc(N(Cc3ccc(C(=O)NO)cc3)C(=O)N3CCOCC3)c2)CC1 [Compound 491, N-(4-(hydroxycarbamoyl)benzyl)-N-(3-(1-(methylsulfonyl)piperidin-4-yl)phenyl)morpholine-4-carboxamide] | 9 | 3220
20 | O=C(NO)c1ccc(CN(C(=O)N2CCC(O)CC2)c2cccc(Br)c2)c(F)c1 [Compound 488, N-(3-bromophenyl)-N-(2-fluoro-4-(hydroxycarbamoyl)benzyl)-4-hydroxypiperidine-1-carboxamide] | 0.5 | 1170
21 | CN(C)c1ccc(-c2cccc(N(Cc3ccc(C(=O)NO)cc3)C(=O)N3CCOCC3)c2)cn1 [Compound 396, N-(3-(6-(dimethylamino)pyridin-3-yl)phenyl)-N-(4-(hydroxycarbamoyl)benzyl)morpholine-4-carboxamide] | 5 | 257
22 | CCN1CCN(C(=O)N(Cc2ccc(C(=O)NO)cc2)c2cccc(C(F)(F)F)n2)CC1 [Compound 826, 4-ethyl-N-(4-(hydroxycarbamoyl)benzyl)-N-(6-(trifluoromethyl)pyridin-2-yl)piperazine-1-carboxamide] | 11.8 | 1850
23 | O=C(NO)c1ccc(CN(C(=O)N2CCOCC2)c2cccc(-c3ccoc3)c2)cc1 [Compound 402, N-(3-(furan-3-yl)phenyl)-N-(4-(hydroxycarbamoyl)benzyl)morpholine-4-carboxamide] | 3 | 170
24 | CC(C)(F)CN1CCC(c2cccc(N(Cc3ccc(C(=O)NO)cc3)C(=O)N3CCOCC3)c2)CC1 [Compound 518, N-(3-(1-(2-fluoro-2-methylpropyl)piperidine-4-yl)phenyl)-N-(4-(hydroxycarbamoyl)benzyl)morpholine-4-carboxamide] | 14 | 495
